Test system: sugarcane
Test: Sugarcane flowering inhibition field trials, floral induction rated on UFSCar scale
Assay type: in vivo
Conditions: 475 g ai/ha
Procedure: In order to explore the activity of florpyrauxifen as flowering inhibitor in sugarcane, field studies were carried out. Florpyrauxifen-benzyl was tested at rates from 2 to 20 grams active ingredient per hectare (g ai/ha) and compared to Ethrel® 720 (Bayer), the standard treatment. The flowering inhibition effect was assessed by checking the floral induction in sugarcane through the percentage scale recommended by UFSCar (Federal University of Sao Carlos, Sao Paulo, Brazil).
Four trials were carried out in sugarcane where florpyrauxifen-benzyl (Rinskor®), applied at a rate of 2 to 20 g ai/ha, was compared to ethephon (Ethrel® 720) applied at a rate of 475 g ai/ha. Control plots of untreated sugarcane were also evaluated. Rinskor® and Ethrel® 720 were diluted in water and a single application for each study (backpack sprayer) was performed delivering 50 L of spray solution per ha at the reproductive stage of sugarcane and at a maximum 150 days before harvest. The activity of florpyrauxifen-benzyl as a flowering inhibitor was measured via assessments (Scale of flowering inhibition—see chart 1) performed at 0, 14, 30, 45, 60, 75, 90, 120, 150 days after application, or up to harvest time. The assessments were measured in sugarcane stems, rating the flowering induction according to the UFSCar scale shown below. Significance of treatment effect was evaluated with F-approximate test (α=0.1) and least square means from different treatments were compared with Tukey's test.

With `O=P(O)(O)CCCl` [ETHREL720, 2-chloroethylphosphonic acid] the “% Referring to Scale” value (Table 1, 75 DAA) was 12.4%, the “Frequency 1/1 (0%)” value (Table 1, 75 DAA) was 17.5% and the “Frequency 2/1 (15%)” value (Table 1, 75 DAA) was 82.5%. For the same molecule, the “Frequency 3/1 (30%)” value (Table 1, 75 DAA) was 0.0%, the “Frequency 4/1 (50%)” value (Table 1, 75 DAA) was 0.0% and the “Frequency 4/2 (80%)” value (Table 1, 75 DAA) was 0.0%. For the same molecule, the “Frequency 4/3 (90%)” value (Table 1, 75 DAA) was 0.0%, the “Frequency 4/4 (100%)” value (Table 1, 75 DAA) was 0.0% and the “% Referring to Scale” value (Table 1, 90 DAA) was 13.1%. For the same molecule, the “Frequency 1/1 (0%)” value (Table 1, 90 DAA) was 20.0%, the “Frequency 2/1 (15%)” value (Table 1, 90 DAA) was 72.5% and the “Frequency 3/1 (30%)” value (Table 1, 90 DAA) was 7.5%. The “Frequency 4/1 (50%)” value (Table 1, 90 DAA) was 0.0%, the “Frequency 4/2 (80%)” value (Table 1, 90 DAA) was 0.0% and the “Frequency 4/3 (90%)” value (Table 1, 90 DAA) was 0.0%. The “Frequency 4/4 (100%)” value (Table 1, 90 DAA) was 0.0%, the “% Referring to Scale” value (Table 1, 120 DAA) was 18.1% and the “Frequency 1/1 (0%)” value (Table 1, 120 DAA) was 0.0%. For the same molecule, the “Frequency 2/1 (15%)” value (Table 1, 120 DAA) was 87.5%, the “Frequency 3/1 (30%)” value (Table 1, 120 DAA) was 10.0% and the “Frequency 4/1 (50%)” value (Table 1, 120 DAA) was 0.0%. For the same molecule, the “Frequency 4/2 (80%)” value (Table 1, 120 DAA) was 2.5%, the “Frequency 4/3 (90%)” value (Table 1, 120 DAA) was 0.0% and the “Frequency 4/4 (100%)” value (Table 1, 120 DAA) was 0.0%. The “% Referring to Scale” value (Table 2, 75 DAA) was 0.8%, the “Frequency 1/1 (0%)” value (Table 2, 75 DAA) was 95.0% and the “Frequency 2/1 (15%)” value (Table 2, 75 DAA) was 5.0%. The “Frequency 3/1 (30%)” value (Table 2, 75 DAA) was 0.0%, the “Frequency 4/1 (50%)” value (Table 2, 75 DAA) was 0.0% and the “Frequency 4/2 (80%)” value (Table 2, 75 DAA) was 0.0%. The “Frequency 4/3 (90%)” value (Table 2, 75 DAA) was 0.0%, the “Frequency 4/4 (100%)” value (Table 2, 75 DAA) was 0.0% and the “% Referring to Scale” value (Table 2, 90 DAA) was 51.8%. For the same molecule, the “Frequency 1/1 (0%)” value (Table 2, 90 DAA) was 0.0%, the “Frequency 2/1 (15%)” value (Table 2, 90 DAA) was 0.0% and the “Frequency 3/1 (30%)” value (Table 2, 90 DAA) was 25.0%. The “Frequency 4/1 (50%)” value (Table 2, 90 DAA) was 52.5%, the “Frequency 4/2 (80%)” value (Table 2, 90 DAA) was 22.5% and the “Frequency 4/3 (90%)” value (Table 2, 90 DAA) was 0.0%. The “Frequency 4/4 (100%)” value (Table 2, 90 DAA) was 0.0%, the “% Referring to Scale” value (Table 2, 120 DAA) was 98.0% and the “Frequency 1/1 (0%)” value (Table 2, 120 DAA) was 0.0%. For the same molecule, the “Frequency 2/1 (15%)” value (Table 2, 120 DAA) was 0.0%, the “Frequency 3/1 (30%)” value (Table 2, 120 DAA) was 0.0% and the “Frequency 4/1 (50%)” value (Table 2, 120 DAA) was 0.0%. The “Frequency 4/2 (80%)” value (Table 2, 120 DAA) was 2.5%, the “Frequency 4/3 (90%)” value (Table 2, 120 DAA) was 15.0% and the “Frequency 4/4 (100%)” value (Table 2, 120 DAA) was 82.5%. For the same molecule, the “% Referring to Scale” value (Table 3, 90 DAA) was 0.0%, the “Frequency 1/1 (0%)” value (Table 3, 90 DAA) was 100.0% and the “Frequency 2/1 (15%)” value (Table 3, 90 DAA) was 0.0%. For the same molecule, the “Frequency 3/1 (30%)” value (Table 3, 90 DAA) was 0.0%, the “Frequency 4/1 (50%)” value (Table 3, 90 DAA) was 0.0% and the “Frequency 4/2 (80%)” value (Table 3, 90 DAA) was 0.0%. The “Frequency 4/3 (90%)” value (Table 3, 90 DAA) was 0.0%, the “Frequency 4/4 (100%)” value (Table 3, 90 DAA) was 0.0% and the “% Referring to Scale” value (Table 3, 120 DAA) was 1.5%. For the same molecule, the “Frequency 1/1 (0%)” value (Table 3, 120 DAA) was 90.0%, the “Frequency 2/1 (15%)” value (Table 3, 120 DAA) was 10.0% and the “Frequency 3/1 (30%)” value (Table 3, 120 DAA) was 0.0%. The “Frequency 4/1 (50%)” value (Table 3, 120 DAA) was 0.0%, the “Frequency 4/2 (80%)” value (Table 3, 120 DAA) was 0.0% and the “Frequency 4/3 (90%)” value (Table 3, 120 DAA) was 0.0%. The “Frequency 4/4 (100%)” value (Table 3, 120 DAA) was 0.0%, the “% Referring to Scale” value (Table 3, 150 DAA) was 0.0% and the “Frequency 1/1 (0%)” value (Table 3, 150 DAA) was 100.0%. For the same molecule, the “Frequency 2/1 (15%)” value (Table 3, 150 DAA) was 0.0%, the “Frequency 3/1 (30%)” value (Table 3, 150 DAA) was 0.0% and the “Frequency 4/1 (50%)” value (Table 3, 150 DAA) was 0.0%. The “Frequency 4/2 (80%)” value (Table 3, 150 DAA) was 0.0%, the “Frequency 4/3 (90%)” value (Table 3, 150 DAA) was 0.0% and the “Frequency 4/4 (100%)” value (Table 3, 150 DAA) was 0.0%. For the same molecule, the “% Referring to Scale” value (Table 4, 90 DAA) was 4.9%, the “Frequency 1/1 (0%)” value (Table 4, 90 DAA) was 67.5% and the “Frequency 2/1 (15%)” value (Table 4, 90 DAA) was 32.5%. The “Frequency 3/1 (30%)” value (Table 4, 90 DAA) was 0.0%, the “Frequency 4/1 (50%)” value (Table 4, 90 DAA) was 0.0% and the “Frequency 4/2 (80%)” value (Table 4, 90 DAA) was 0.0%. For the same molecule, the “Frequency 4/3 (90%)” value (Table 4, 90 DAA) was 0.0% and the “Frequency 4/4 (100%)” value (Table 4, 90 DAA) was 0.0%.

Reference: patent US20240138411A1, “METHOD OF […] OF SUGARCANE” (CORTEVA AGRISCIENCE LLC, priority 2021, published 2024)
